From paper PMC11898488, “A2A Adenosine Receptor Antagonists and Their Efficacy in Rat Models of Parkinson’s Disease” (Cells, 2025)
Entries after “also recorded” stand apart in the source; their conditions may differ.

What was measured:
[1] = biological target: T1, human A2AAR (Homo sapiens, UniProt P29274); assay: Radioligand binding, displacement of [3H]NECA at human A2AAR in CHO cells; conditions: for Selectivity A1/A2A / Selectivity A3/A2A: ratio of Ki values at human ARs; for Ki: [3H]-NECA displacement, human A2AAR in CHO cells, geometric mean with 95% confidence limits, read-out: Ki A2A
T1 construct: expressed in transfected cells; host or cells: CHO cells, crude membrane fractions
Experimental: The radioligand binding experiments were carried out exactly as described previously. For A1AR binding, 1 nM [^3H]CCPA was used as a radioligand, whereas 30 and 10 nM [^3H]NECA were used for A2A and A3 ARs, respectively. Nonspecific binding was determined in the presence of 1 mM theophylline (A1AR) or […] R-PIA (A2A and A3 ARs). Ki values were calculated from competition curves by nonlinear curve fitting with the program SCTFIT [31].
CHO cells stably transfected with human ARs were grown adherently and maintained in Dulbecco’s Modified Eagles Medium with nutrient mixture F12 (DMEM/F12) without nucleosides, containing 10% fetal calf serum, penicillin (100 U/mL), streptomycin (100 μg/mL), L-glutamine (2 mM), and Geneticin (G-418, 0.2 mg/mL) at 37 °C in 5% CO2/95% air, as described earlier. For radioligand binding studies and measurement of adenylyl cyclase activity, crude membrane fractions were prepared from fresh or frozen cells with two different protocols described earlier. The determination of adenylyl cyclase activity followed the procedure described earlier. IC50 values for the inhibition of adenylyl cyclase stimulated (in the case of A2BAR) with 5 μM NECA were calculated with the Hill equation and converted to Ki values with the Cheng and Prusoff equation [32].
[^3H]CCPA (2-chloro-N^6-cyclopentylAdo) and [^3H]NECA (5′-N-ethylcarboxamidoAdo) were used as specific radioligands at A1ARand A2A / A3 ARs, respectively. Furthermore, the ability of the same compounds to inhibit NECA-stimulated adenylyl cyclase activity was evaluated at the A2BAR subtype. The results of the binding studies (A1, A2A, and A3 ARs) and functional data (A2BAR) are reported in Table 1 as Ki or IC50 values in nM, together with the data on the reference compounds 1–3.

[2] = biological target: T1, human A2AAR; assay: GloSensor cAMP assay in CHO cells expressing human A2AAR; assay type: cell-based; conditions: for cAMP production when tested alone (agonist behavior): A2AAR transfected CHO cells, compound alone, in comparison with NECA; for IC50: CHO cells expressing hA2AARs, GloSensor cAMP assay, mean ± standard error, read-out: IC50, inhibition of NECA-induced cAMP production
Experimental: The performed GloSensorÏ cAMP assay is a non-radioactive method that offers a simple and powerful approach to monitor G-protein coupled receptor (GPCR) activity through change in the intracellular cAMP concentration.
Cell culture: CHO cells stably expressing human A2AAR were grown adherently and maintained in Dulbecco’s modified Eagle’s medium with nutrient mixture F12 (DMEM/F12 with phenol red), supplemented with 10% fetal bovine serum (FBS), 100 U mL^−1 penicillin, 100 µg mL^−1 streptomycin, 2.5 µg mL^−1 amphotericin, 1 mM sodium pyruvate and 0.1 mg mL^−1 geneticin (G418), at 37 °C and aerated with 5% CO2:95% […]. Cells were grown to approximately 70–80% confluence, and transient transfection with a plasmid encoding the biosensor was performed.
GloSensorÏ cAMP assay: Cells were harvested in CO2-independent medium and were counted in a Neubauer chamber. The desired number of cells was incubated in equilibration medium containing a 3% v/v GloSensor^TM cAMP reagent stock solution, 10% FBS, and 87% CO2 independent medium. After 2 h of incubation, the cells were dispensed in the wells of a 384-well plate and, when a steady-state basal signal was obtained, the NECA referent agonist or the understudy compounds, at different concentrations, were added. […] The antagonist profile was evaluated by assessing their ability to counteract an agonist-induced increase in cAMP accumulation. The cells were incubated in the reaction medium (10 min at room temperature) with different understudy molecule concentrations and then treated with NECA. After 10 min, various luminescence reads were performed at different incubation times.
Statistical analysis: Responses were expressed as a percentage of the maximal relative luminescence units (RLU). Concentration–response curves were fitted by a nonlinear regression with the Prism 4.0 program (GraphPAD Software, San Diego, CA, USA). To quantify the NECA agonist potency, the EC50 value was calculated. The EC50 value is the concentration of agonists required to produce 50% of the maximum effect. To evaluate the antagonist profile, the IC50 values were determined. The IC50 value is the concentration of antagonists that produces a 50% inhibition of the agonist effect. Each concentration was tested three times in triplicate, and the values are given as the mean ± standard error.

[3] = system: 6-OHDA-lesioned rats; assay: Potentiation of L-dopa-induced contralateral rotations in unilaterally 6-OHDA-lesioned rats; assay type: in vivo, rat; conditions: 5 mg/kg i.p. with L-dopa 3 mg/kg i.p., turns in 2 h, versus L-dopa alone
Experimental: Rats (275–300 g) were anesthetized and placed on a David Kopf stereotaxic apparatus (Tujunga, CA, USA) and infused, using a stainless steel cannula, into the left medial forebrain bundle [coordinates A = −2.2, L = +1.5 from bregma, V = −7.9 from the dura, according to the atlas of Pellegrino et al. (1979) [34]] with 6-OHDA (8 μg/4 μL of saline containing 0.05% ascorbic acid). Rats were pretreated with desipramine (10 mg/kg i.p.) to prevent damage to noradrenergic neurons.
Rotational behavior was assessed in hemispherical bowls (50 cm diameter), with sawdust on the floor, in which each rat was connected to an automated rotameter system (Panlab s.l., Barcelona, Spain) capable of detecting the number of full (360°) rotations in both directions (ipsilateral and contralateral to the lesioned hemisphere). Rats were placed in the bowls 30 min before drug administration to acclimatize and extinguish any spontaneous rotational behavior, and both contralateral and homolateral rotations were measured in 10 min blocks for 120 min after drug injection. The total number of contralateral and homolateral rotations (mean ± SEM) in a 2 h testing period were calculated.
Potentiation of L-dopa-induced rotational behavior: two weeks after the unilateral 6-OHDA lesion, rats were screened based on their contralateral rotations in response to L-dopa (50 mg/kg i.p.) + benserazide (30 mg/ kg i.p.). Rats not showing at least 300 contralateral rotations during the 2 h testing period were eliminated from the study. Three days later, rats were administered with a subthreshold dose of L-dopa (3 mg/kg i.p.) + benserazide (6 mg/kg i.p.) in combination with the vehicle or with a dose of 5 mg/kg i.p of 1, 4, or 5. Compounds were administered simultaneously with L-dopa. Benserazide was always injected 30 min before L-dopa.
In the rotational behavior experiments, the mean and S.E.M. of the total number of contralateral rotations were calculated. Significant differences between groups were evaluated by one-way ANOVA followed by a Newman–Keuls post hoc test.

[4] = system: spontaneous motility; assay: Spontaneous motility in rats; assay type: in vivo, rat; conditions: for Effect on spontaneous motility: 5 mg/kg i.p.; for Effect on motility at higher doses: 10 and 15 mg/kg

T1 sequence (P29274 whole entry): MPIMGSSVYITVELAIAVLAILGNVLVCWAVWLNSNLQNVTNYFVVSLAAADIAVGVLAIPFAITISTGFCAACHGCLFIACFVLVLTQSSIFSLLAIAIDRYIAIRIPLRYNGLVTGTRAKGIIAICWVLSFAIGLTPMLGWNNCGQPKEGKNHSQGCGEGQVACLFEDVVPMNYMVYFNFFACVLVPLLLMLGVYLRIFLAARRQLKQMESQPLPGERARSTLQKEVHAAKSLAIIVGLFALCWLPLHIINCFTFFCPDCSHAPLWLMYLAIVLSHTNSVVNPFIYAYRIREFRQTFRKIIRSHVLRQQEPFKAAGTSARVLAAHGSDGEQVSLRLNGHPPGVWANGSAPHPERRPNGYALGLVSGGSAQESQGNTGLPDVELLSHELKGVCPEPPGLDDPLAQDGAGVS

Compound	Selectivity A1/A2A [1]	Selectivity A3/A2A [1]	cAMP production when tested alone (agonist behavior) [2]	IC50 [2]	Number of contralateral rotations induced by subthreshold L-dopa [3]	Effect on spontaneous motility [4]	Effect on motility at higher doses [4]	Ki [1]
CCn1c(Br)nc2c(N)nc(OCCc3ccccc3)nc21 [Compound 1, 8-bromo-9-ethyl-2-phenetoxyadenine]	14	641	not able to stimulate cAMP production; also recorded: no increase in cAMP production was detected	108 ± 23 nM	did not increase	did not modify spontaneous motility	caused hypermotility	
CCOc1nc2c(N)nc(OCCc3ccccc3)nc2n1CC [Compound 4, 8-ethoxy-9-ethyl-2-phenethoxyadenine]	23	97	not able to stimulate cAMP production; also recorded: no increase in cAMP production was detected	278 ± 49 nM	significantly increased	did not modify spontaneous motility	caused hypermotility	3.7 nM
CCn1c(I)nc2c(N)nc(OCCc3ccccc3)nc21 [Compound 5, 9-ethyl-8-iodo-2-phenethoxy-9H-purin-6-amine]	21	408	not able to stimulate cAMP production; also recorded: no increase in cAMP production was detected	114 ± 25 nM	significantly increased	did not modify spontaneous motility	caused hypermotility	1.2 nM
